Among the data in ChEMBL document CHEMBL1221360, “Synthesis and structure-activity relationships of sinenxan A derivatives as multidrug resistance reversal agents” (Bioorg Med Chem Lett, 2010) are Activity and Ratio values, retold here.

Each structure is given as a SMILES string. The source made the active and inactive calls. The rule behind the calls is not given here.

For assay [1], the system named is KB/V. Kind of assay: Reversal of human P-glycoprotein-mediated multidrug resistance in human KB/V cells as reduction of vincristine IC50 at 10 uM. Type of assay: cell-based.
The subject of the next assay is KB. The assay can be described thus: Cytotoxicity against human KB cells. Type of assay: functional, cell-based.
For assay [2], the system named is KB/V. Kind of assay: Partial reversal of human P-glycoprotein-mediated multidrug resistance in human KB/V cells as reduction of vincristine IC50 at 10 uM. Type of assay: cell-based.
For assay [3], the system named is KB/V. Kind of assay: Ratio of compound reversal of P-glycoprotein-mediated multidrug resistance to verapamil reversal of P-glycoprotein-mediated multidrug resistance in human KB/V cells. Type of assay: cell-based.

In the case of `C=C1[C@@H](OC(=O)/C=C/c2ccccc2)CC[C@@]2(C)C[C@H](OC(C)=O)C3=C(C)CC[C@@H]([C@@H](OC(C)=O)[C@H]12)C3(C)C`, the outcome with KB/V [1] and in the assay on KB was inactive.
`C=C1[C@@H](OC(=O)CCCCc2ccccc2)CC[C@@]2(C)C[C@H](OC(C)=O)C3=C(C)C(=O)C[C@@H]([C@@H](OC(C)=O)[C@H]12)C3(C)C`: the result in the assay with KB/V [1] and in the assay on KB was inactive.
`C=C1[C@@H](OC(=O)COc2ccc3ccccc3c2)CC[C@@]2(C)C[C@H](OC(C)=O)C3=C(C)CC[C@@H]([C@@H](OC(C)=O)[C@H]12)C3(C)C`: the outcome in the assay with KB was inactive. Further, the result in the assay with KB/V [2] was Active.
As to `C=C1[C@@H](OC(=O)CCCc2ccccc2)CC[C@@]2(C)C[C@H](OC(C)=O)C3=C(C)CC[C@@H]([C@@H](OC(C)=O)[C@H]12)C3(C)C`, the outcome in the assay with KB/V [1] and in the assay with KB was inactive.
In the case of `C=C1[C@@H](OC(=O)CC2CCCCC2)CC[C@@]2(C)C[C@H](OC(C)=O)C3=C(C)C(=O)C[C@@H]([C@@H](OC(C)=O)[C@H]12)C3(C)C`, the outcome in the assay with KB/V [1] was Active. In the assay on KB, the result was inactive. In the assay with KB/V [3], the Ratio is 6.6.
With `C=C1[C@@H](OC(=O)CCc2cccnc2)CC[C@@]2(C)C[C@H](OC(C)=O)C3=C(C)C(=O)C[C@@H]([C@@H](OC(C)=O)[C@H]12)C3(C)C`, in the assay with KB/V [1], the result was Active. Besides, the result with KB was inactive. Further, the Ratio with KB/V [3] was 1.42.
As for `COc1ccc(CCN(C)CCCC(C#N)(c2ccc(OC)c(OC)c2)C(C)C)cc1OC` (stereo not drawn), the outcome in the assay with KB/V [1] and in the assay with KB was inactive.
Consider `C=C1[C@@H](OC(=O)CCCc2cccs2)CC[C@@]2(C)C[C@H](OC(C)=O)C3=C(C)C(=O)C[C@@H]([C@@H](OC(C)=O)[C@H]12)C3(C)C`, for which, in the assay on KB, the result was inactive. Also, the result in the assay with KB/V [2] was Active.
Regarding `C=C1[C@@H](OC(=O)CCC2CCCCC2)CC[C@@]2(C)C[C@H](OC(C)=O)C3=C(C)CC[C@@H]([C@@H](OC(C)=O)[C@H]12)C3(C)C`, the result in the assay on KB/V [1] and with KB was inactive.
As for `C=C1[C@@H](OC(=O)c2ccco2)CC[C@@]2(C)C[C@H](OC(C)=O)C3=C(C)C(=O)C[C@@H]([C@@H](OC(C)=O)[C@H]12)C3(C)C`, the result with KB was inactive. Also, the result in the assay on KB/V [2] was Active.
On to `C=C1[C@@H](OC(=O)/C=C\c2ccco2)CC[C@@]2(C)C[C@H](OC(C)=O)C3=C(C)C(=O)C[C@@H]([C@@H](OC(C)=O)[C@H]12)C3(C)C`, for which, in the assay on KB/V [1], the outcome was Active. Further, in the assay on KB, the outcome was inactive. In the assay on KB/V [3], the Ratio was 1.67.
Regarding `C=C1[C@@H](OC(=O)Cc2cccc3ccccc23)CC[C@@]2(C)C[C@H](OC(C)=O)C3=C(C)C(=O)C[C@@H]([C@@H](OC(C)=O)[C@H]12)C3(C)C`, the result in the assay with KB/V [1] and in the assay on KB was inactive.
Take `C=C1[C@@H](OC(=O)CCc2cccs2)CC[C@@]2(C)C[C@H](OC(C)=O)C3=C(C)C(=O)C[C@@H]([C@@H](OC(C)=O)[C@H]12)C3(C)C`: the result in the assay with KB/V [1] and in the assay with KB was inactive.
For the compound `C=C1[C@@H](OC(=O)CCC(=O)O)CC[C@@]2(C)C[C@H](OC(C)=O)C3=C(C)CC[C@@H]([C@@H](OC(C)=O)[C@H]12)C3(C)C`, the outcome in the assay on KB/V [1] and with KB was inactive.
On to `C=C1[C@@H](OC(=O)Cc2ccccc2)CC[C@@]2(C)C[C@H](OC(C)=O)C3=C(C)CC[C@@H]([C@@H](OC(C)=O)[C@H]12)C3(C)C`, for which the result in the assay with KB/V [1] and with KB was inactive.
Regarding `C=C1[C@@H](OC(=O)Cc2cc(OC)ccc2OC)CC[C@@]2(C)C[C@H](OC(C)=O)C3=C(C)CC[C@@H]([C@@H](OC(C)=O)[C@H]12)C3(C)C`, the outcome in the assay with KB/V [1] and in the assay on KB was inactive.
Take `C=C1[C@@H](OC(=O)COc2ccc3ccccc3c2)CC[C@@]2(C)C[C@H](OC(C)=O)C3=C(C)C(=O)C[C@@H]([C@@H](OC(C)=O)[C@H]12)C3(C)C`: the result with KB/V [1] and in the assay on KB was inactive.
As to `C=C1[C@@H](OC(=O)c2cccnc2)CC[C@@]2(C)C[C@H](OC(C)=O)C3=C(C)CC[C@@H]([C@@H](OC(C)=O)[C@H]12)C3(C)C`, in the assay on KB, the result was inactive. Also, the result with KB/V [2] was Active.
Consider `C=C1[C@@H](OC(=O)/C=C\c2ccco2)CC[C@@]2(C)C[C@H](OC(C)=O)C3=C(C)CC[C@@H]([C@@H](OC(C)=O)[C@H]12)C3(C)C`, for which the result in the assay with KB/V [1] and with KB was inactive.
For the compound `C=C1[C@@H](OC(=O)Cc2cccs2)CC[C@@]2(C)C[C@H](OC(C)=O)C3=C(C)CC[C@@H]([C@@H](OC(C)=O)[C@H]12)C3(C)C`, the result in the assay with KB/V [1] and with KB was inactive.
Consider `C=C1[C@@H](OC(=O)c2ccco2)CC[C@@]2(C)C[C@H](OC(C)=O)C3=C(C)CC[C@@H]([C@@H](OC(C)=O)[C@H]12)C3(C)C`, for which the outcome with KB/V [1] and with KB was inactive.
`C=C1[C@@H](OC(=O)CCc2ccccc2)CC[C@@]2(C)C[C@H](OC(C)=O)C3=C(C)CC[C@@H]([C@@H](OC(C)=O)[C@H]12)C3(C)C`: the result with KB/V [1] and with KB was inactive.
In the case of `C=C1[C@@H](OC(=O)CCCCc2ccccc2)CC[C@@]2(C)C[C@H](OC(C)=O)C3=C(C)CC[C@@H]([C@@H](OC(C)=O)[C@H]12)C3(C)C`, the result in the assay with KB was inactive. In addition, in the assay on KB/V [2], the outcome was Active.
On to `C=C1[C@@H](OC(=O)c2cccnc2)CC[C@@]2(C)C[C@H](OC(C)=O)C3=C(C)C(=O)C[C@@H]([C@@H](OC(C)=O)[C@H]12)C3(C)C`, for which, in the assay with KB, the outcome was inactive. Moreover, in the assay with KB/V [2], the result was Active.
`C=C1[C@@H](OC(=O)Cc2cccs2)CC[C@@]2(C)C[C@H](OC(C)=O)C3=C(C)C(=O)C[C@@H]([C@@H](OC(C)=O)[C@H]12)C3(C)C`: the outcome in the assay with KB/V [1] and with KB was inactive.
Take `C=C1[C@@H](OC(=O)CCC2CCCCC2)CC[C@@]2(C)C[C@H](OC(C)=O)C3=C(C)C(=O)C[C@@H]([C@@H](OC(C)=O)[C@H]12)C3(C)C`: in the assay on KB, the outcome was inactive. In the assay on KB/V [2], the result was Active.
As for `C=C1[C@@H](OC(=O)[C@@H]2CCCN2)CC[C@@]2(C)C[C@H](OC(C)=O)C3=C(C)C(=O)CC([C@@H](OC(C)=O)[C@H]12)C3(C)C` (single isomer, unassigned), in the assay on KB/V [1], the outcome was Active. Besides, in the assay on KB, the result was inactive. Besides, the Ratio in the assay with KB/V [3] was determined as 21.2.
